Test results taken from patent US11492335B2, “Aryl or heteroaryl triazolone derivatives or salts thereof, or pharmaceutical compositions comprising the same” (YUHAN CORPORATION, priority 2018, dated 2022).
Structures can show the parent of a compound that is named as a salt. Where two headings read alike, the source gives them in different places.

Columns and labels:
Format in all cases: biochemical
recombinant human VAP-1 = biological target: T1, recombinant human VAP-1 (Homo sapiens, UniProt Q16853); assay: Activity on recombinant human VAP-1, Amplex Red HRP-coupled hydrogen peroxide assay, benzylamine substrate; conditions: recombinant human VAP-1, benzylamine substrate, read-out: Inhibitory Activity (IC50, nM) human VAP-1
T1 construct: purchased R&D systems
T1 sequence (Q16853 1-763): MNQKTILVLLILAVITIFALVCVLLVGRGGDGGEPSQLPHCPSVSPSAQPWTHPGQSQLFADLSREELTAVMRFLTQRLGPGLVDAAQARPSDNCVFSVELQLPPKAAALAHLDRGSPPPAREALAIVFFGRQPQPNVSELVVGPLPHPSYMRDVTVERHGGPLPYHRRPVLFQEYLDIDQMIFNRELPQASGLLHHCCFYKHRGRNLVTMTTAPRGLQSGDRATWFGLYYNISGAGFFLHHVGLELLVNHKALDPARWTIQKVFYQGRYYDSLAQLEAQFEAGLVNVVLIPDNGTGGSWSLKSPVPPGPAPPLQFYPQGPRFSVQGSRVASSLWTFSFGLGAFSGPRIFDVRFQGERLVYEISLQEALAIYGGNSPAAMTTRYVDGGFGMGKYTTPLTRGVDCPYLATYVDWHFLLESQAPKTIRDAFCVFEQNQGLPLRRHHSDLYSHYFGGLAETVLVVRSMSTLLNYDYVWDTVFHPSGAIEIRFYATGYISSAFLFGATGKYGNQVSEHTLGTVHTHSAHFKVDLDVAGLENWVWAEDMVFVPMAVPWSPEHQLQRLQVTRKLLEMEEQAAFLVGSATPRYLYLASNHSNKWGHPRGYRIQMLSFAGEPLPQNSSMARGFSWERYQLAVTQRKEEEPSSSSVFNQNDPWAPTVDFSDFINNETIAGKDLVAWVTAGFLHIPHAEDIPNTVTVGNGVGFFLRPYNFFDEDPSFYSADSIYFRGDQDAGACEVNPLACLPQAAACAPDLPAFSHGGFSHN
Method in brief: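 Enzyme in 50 mM sodium phosphate pH 7.4 preincubated with compound 30 min at 37 °C, then 1 mM benzylamine, 200 µM Amplex Red and 1 U/mL HRP added. H2O2-derived resorufin fluorescence (ex 544/em 590 nm) followed over 1–2 h; signal-rate decrease versus DMSO control, 8-point curve, four-parameter logistic IC50.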

[1] = biological target: T2, recombinant human MAO-A (monoamine oxidase-A) (Homo sapiens, UniProt P21397); assay: Activity on recombinant human MAO-A, Amplex Red method, 0.5 mM tyramine substrate; conditions: read-out: Inhibitory Activity (IC50, nM) MAO-A
T2 construct: purchased Sigma-Aldrich
T2 sequence (P21397 1-527): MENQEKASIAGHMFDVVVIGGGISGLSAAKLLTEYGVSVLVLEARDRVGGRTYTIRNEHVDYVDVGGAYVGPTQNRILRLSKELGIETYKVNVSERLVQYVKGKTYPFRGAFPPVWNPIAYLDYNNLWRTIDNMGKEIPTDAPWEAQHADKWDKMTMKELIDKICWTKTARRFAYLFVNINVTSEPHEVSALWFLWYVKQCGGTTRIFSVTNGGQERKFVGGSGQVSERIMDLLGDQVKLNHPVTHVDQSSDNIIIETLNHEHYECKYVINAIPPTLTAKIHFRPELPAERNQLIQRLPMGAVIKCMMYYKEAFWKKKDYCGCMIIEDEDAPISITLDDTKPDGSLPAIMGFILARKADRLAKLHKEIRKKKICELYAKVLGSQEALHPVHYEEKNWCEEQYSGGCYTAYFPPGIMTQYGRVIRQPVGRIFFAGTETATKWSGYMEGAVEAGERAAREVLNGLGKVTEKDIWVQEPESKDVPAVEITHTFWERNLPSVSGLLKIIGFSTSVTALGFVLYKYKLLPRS
Method: The compounds according to the present technology were evaluated in terms of activity on recombinant human VAP-1 (R&D systems) by measuring the level of hydrogen peroxide in horseradish peroxidase (HRP)-coupled reaction using Amplex Red Hydrogen Peroxide Assay Kit (Molecular Probes, Invitrogen, USA). The experiment was carried out at room temperature using benzylamine as a substrate. In the HRP-coupled reaction, hydrogen peroxide oxidation of 10-acetyl-3,7-dihydroxyphenoxazine (Amplex Red reagent) produces resorufin, which is a highly fluorescent compound. Briefly, the test compound was dissolved in dimethyl sulfoxide (DMSO) at a concentration of 20 mM. The dose-response assessment was made by 1:3 serial dilution in DMSO, thereby creating an 8 point curve. The concentration of the upper part was controlled according to the efficacy of the compounds, followed by dilution with a reaction buffer solution to obtain a final DMSO concentration less than 1%. To each well of a 96 black well plate, human VAP-1 purified in 50 mM sodium phosphate buffer solution (pH7.4) was added. The test compounds dissolved in DMSO were incubated with the human VAP-1 enzymes at 37° C. for 30 minutes. After 30-minute incubation, each well is added with a reaction mixture containing 200 uM Amplex Red reagent prepared from 50 mM sodium phosphate buffer solution (pH 7.4), 1 mM benzylamine, and 1 U/mL HRP. Fluorescence intensity was measured at several time points during 1-2 hours using a microplate reader (Flexstation3, Molecular Devices) under the wavelength condition exciting at 544 nm and reading the emission at 590 nm. The inhibitory effect of the compounds was measured as a decrease (%) in the signal rate as compared to the control group without any inhibitor (only diluted DMSO). Data was fixed to a logistic model with four variables and IC50 value was calculated using GraphPad Prism program.
In addition, the compounds according to the present technology were evaluated in terms of activity on a recombinant human MAO-A (monoamine oxidase-A, Sigma-Aldrich) and a recombinant human MAO-B (monoamine oxidase-B, Sigma-Aldrich) by using as substrates, 0.5 mM tyramine and 1 mM benzylamine, respectively, with a method similar to the activity evaluation method for recombinant human VAP-1. The compounds according to the present technology were also evaluated in terms of activity on a recombinant human DAO (diamine oxidase, R&D systems) by using as a substrate 1 mM putrescine with a method similar to the activity evaluation method for recombinant human VAP-1.

[2] = biological target: T3, recombinant human DAO (diamine oxidase) (Homo sapiens, UniProt P19801); assay: Activity on recombinant human DAO, Amplex Red method, 1 mM putrescine substrate; conditions: recombinant human DAO, read-out: Inhibitory Activity (IC50, nM) DAO
T3 construct: purchased R&D systems
T3 sequence (P19801 20-751): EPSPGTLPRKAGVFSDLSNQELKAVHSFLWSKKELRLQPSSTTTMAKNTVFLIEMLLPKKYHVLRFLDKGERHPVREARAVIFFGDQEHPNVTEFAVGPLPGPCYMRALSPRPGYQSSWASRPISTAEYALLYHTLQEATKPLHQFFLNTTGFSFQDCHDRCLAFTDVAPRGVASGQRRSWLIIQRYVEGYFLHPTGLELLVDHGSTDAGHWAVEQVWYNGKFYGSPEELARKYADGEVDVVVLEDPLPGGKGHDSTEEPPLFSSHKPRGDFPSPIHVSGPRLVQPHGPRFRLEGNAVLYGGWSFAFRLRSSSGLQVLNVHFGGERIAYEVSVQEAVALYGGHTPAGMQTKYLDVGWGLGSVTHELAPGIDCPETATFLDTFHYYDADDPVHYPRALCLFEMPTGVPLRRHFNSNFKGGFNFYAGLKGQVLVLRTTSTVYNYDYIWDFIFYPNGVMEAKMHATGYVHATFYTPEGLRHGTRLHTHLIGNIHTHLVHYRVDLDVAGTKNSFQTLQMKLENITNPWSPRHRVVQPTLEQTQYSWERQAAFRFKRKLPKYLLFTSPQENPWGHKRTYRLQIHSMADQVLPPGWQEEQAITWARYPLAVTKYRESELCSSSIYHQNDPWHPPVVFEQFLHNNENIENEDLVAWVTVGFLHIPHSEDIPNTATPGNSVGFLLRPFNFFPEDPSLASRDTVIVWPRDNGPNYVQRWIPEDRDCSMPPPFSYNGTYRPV
Method in brief: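 Inhibition of recombinant human DAO (diamine oxidase, R&D systems) was assessed with the Amplex Red Hydrogen Peroxide Assay Kit. Hydrogen peroxide produced from 1 mM putrescine was detected through an HRP-coupled reaction that converts Amplex Red into fluorescent resorufin, read at 544 nm excitation and 590 nm emission. IC50 values came from four-parameter logistic fits in GraphPad Prism.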

[3] = biological target: T4, recombinant human MAO-B (monoamine oxidase-B) (Homo sapiens, UniProt P27338); assay: Activity on recombinant human MAO-B, Amplex Red method, 1 mM benzylamine substrate; conditions: read-out: Inhibitory Activity (IC50, nM) MAO-B
T4 construct: purchased Sigma-Aldrich
T4 sequence (P27338 1-520): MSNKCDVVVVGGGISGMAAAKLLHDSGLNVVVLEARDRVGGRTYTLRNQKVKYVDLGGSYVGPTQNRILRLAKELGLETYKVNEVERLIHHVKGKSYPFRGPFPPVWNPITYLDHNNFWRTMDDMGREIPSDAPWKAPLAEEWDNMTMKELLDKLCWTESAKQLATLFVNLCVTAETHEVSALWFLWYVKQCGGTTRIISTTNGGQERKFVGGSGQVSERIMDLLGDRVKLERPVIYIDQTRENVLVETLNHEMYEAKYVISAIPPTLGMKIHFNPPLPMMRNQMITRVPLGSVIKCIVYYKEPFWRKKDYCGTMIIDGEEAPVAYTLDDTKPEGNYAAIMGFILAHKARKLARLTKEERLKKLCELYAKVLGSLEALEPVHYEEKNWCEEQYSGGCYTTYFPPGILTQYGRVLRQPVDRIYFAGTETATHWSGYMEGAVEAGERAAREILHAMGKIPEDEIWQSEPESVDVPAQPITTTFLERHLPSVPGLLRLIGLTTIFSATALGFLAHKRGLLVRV
Method in brief: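 Enzyme preincubated with compound 30 min at 37 °C in 50 mM sodium phosphate pH 7.4, final DMSO below 1%. Substrate was 0.5 mM tyramine for MAO-A and 1 mM benzylamine for MAO-B, with 200 uM Amplex Red and 1 U/mL HRP. H2O2-coupled resorufin fluorescence (ex 544/em 590) followed over 1–2 h; 8-point 4-parameter IC50.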

[4] = 1 mM putrescine, * = between 10 and 100 nM, ** = between 300 and 1000 nM

IC50 (recombinant human VAP-1; 30 min preincubation at 37° C.) [nM] | IC50 ([1]; 0.5 mM tyramine) [nM] | IC50 [2, 4] [nM] | IC50 ([3]; 1 mM benzylamine) [nM] | IC50 (recombinant human VAP-1) [nM] | IC50 ([1]; 0.5 mM tyramine substrate) [nM] | IC50 ([2]; 1 mM putrescine substrate) [nM] | IC50 ([3]; 1 mM benzylamine substrate) [nM] | SMILES
0.4 | > 100000 | < 100 | > 10000 |  |  |  |  | CS(=O)(=O)c1ccc(-c2cccc(-n3cnn(C/C(=C/F)CN)c3=O)c2)cc1 [Example 54, 2-[(2E)-2-(aminomethyl)-3-fluoroprop-2-en-1-yl]-4-[4′-(methylsulfonyl)biphenyl-3-yl]-2,4-dihydro-3H-1,2,4-triazol-3-one hydrochloride]
 |  |  |  | 0.8 | > 10000 | 6.4 | 16 | NC/C(=C\F)Cn1ncn(-c2cc(/C=C/c3ccccc3)ccn2)c1=O [Example 236, 2-[(2E)-2-(aminomethyl)-3-fluoroprop-2-en-1-yl]-4-{4-[(E)-2-phenylethenyl]pyridin-2-yl}-2,4-dihydro-3H-1,2,4-triazol-3-one hydrochloride]
1.3 | > 100000 | < 100 | 3220 |  |  |  |  | CC(=O)Nc1cc(-c2cc(C)c(-n3cnn(C/C(=C/F)CN)c3=O)cn2)ccn1 [Example 123, N-(5-{1-[(2E)-2-(aminomethyl)-3-fluoroprop-2-en-1-yl]-5-oxo-1,5-dihydro-4H-1,2,4-triazol-4-yl}-4-methyl-2,4′-bipyridin-2′-yl)acetamide]
 |  |  |  | 0.8 | > 100000 | 12 | 100 | NC/C(=C\F)Cn1ncn(-c2cc(C#Cc3ccccn3)ccn2)c1=O [Example 244, 2-[(2E)-2-(aminomethyl)-3-fluoroprop-2-en-1-yl]-4-[4-(pyridin-2-ylethynyl)pyridin-2-yl]-2,4-dihydro-3H-1,2,4-triazol-3-one hydrochloride]
6.6 | 1500 | 14 | 503 |  |  |  |  | NC/C(=C/F)Cn1ncn(-c2ncc(Br)cc2F)c1=O [Example 35, 2-[(2Z)-2-(aminomethyl)-3-fluoroprop-2-en-1-yl]-4-(5-bromo-3-fluoropyridin-2-yl)-2,4-dihydro-3H-1,2,4-triazol-3-one hydrochloride]
0.98 | > 100000 | 67 | > 10000 |  |  |  |  | NC/C(=C\F)Cn1ncn(-c2cccc(-c3ccc(C4CCOCC4)cc3)c2)c1=O [Example 73, 2-[(2E)-2-(aminomethyl)-3-fluoroprop-2-en-1-yl]-4-[4′-(tetrahydro-2H-pyran-4-yl)biphenyl-3-yl]-2,4-dihydro-3H-1,2,4-triazol-3-one hydrochloride]
0.75 | 1500 | 38 | 281 |  |  |  |  | NC/C(=C\F)Cn1ncn(-c2ccc(Br)cc2F)c1=O [Example 12, 2-[(2E)-2-(aminomethyl)-3-fluoroprop-2-en-1-yl]-4-(4-bromo-2-fluorophenyl)-2,4-dihydro-3H-1,2,4-triazol-3-one hydrochloride]
0.7 | > 100000 | < 100 | 456 |  |  |  |  | Cc1cc(-c2ccc(-c3nc[nH]n3)cc2)ncc1-n1cnn(C/C(=C/F)CN)c1=O [Example 121, 2-[(2E)-2-(aminomethyl)-3-fluoroprop-2-en-1-yl]-4-{4-methyl-6-[4-(1H-1,2,4-triazol-3-yl)phenyl]pyridin-3-yl}-2,4-dihydro-3H-1,2,4-triazol-3-one]
